Results from US20260137710A1, “PHARMACEUTICAL USE OF NUCLEOSIDE COMPOUND” (priority 2022, published 2026).

Assays:
Cowpox virus = experiment: microbe, parasite or virus in culture; format: cell-based; conditions: for EC50: Cowpox virus, HFF-1, 96 h
Smallpox virus = experiment: microbe, parasite or virus in culture; format: cell-based; conditions: for EC50: Variola virus, HFF-1, 96 h
Monkeypox virus = experiment: microbe, parasite or virus in culture; format: cell-based; conditions: for EC50: Monkeypox virus, HFF-1, 96 h
Vaccinia VP13 = experiment: microbe, parasite or virus in culture; format: cell-based, Vaccinia virus; conditions: for EC50: Orthopoxvirus vaccinia, HFF-1, 96 h
in vitro = conditions: human

| SMILES | EC50 (Cowpox virus) | EC50 (Smallpox virus) | EC50 (Monkeypox virus) | EC50 (Vaccinia VP13) | CC50 (in vitro) | activity to inhibit cowpox virus (in words) (Cowpox virus) | activity to inhibit smallpox virus (in words) (Smallpox virus) | activity to inhibit monkeypox virus (in words) (Monkeypox virus) | activity to inhibit vaccinia virus (in words) (Vaccinia VP13) |
| --- | --- | --- | --- | --- | --- | --- | --- | --- | --- |
| O=C(NN1C(=O)[C@@H]2[C@@H]3C=C[C@@H]([C@H]4C[C@@H]34)[C@@H]2C1=O)c1ccc(C(F)(F)F)cc1 [ST-246, reference compound] | 50 nM | 70 nM | 30 nM | 40 nM | > 100000 nM |  |  |  |  |
| [N-]=[N+]=NC1(CO)OC(n2ccc(N)nc2=O)C(F)C1O (centres unmarked) [Compound 1, Azvudine] | 750 nM | 1200 nM | 320 nM | 570 nM | > 10000 nM | significant inhibitory effect | significant inhibitory effect | significant inhibitory effect | significant inhibitory effect |
